Among the data in US12715865B2, “Modulators of the integrated stress response pathway” (EVOTEC INTERNATIONAL GMBH, priority 2020, dated 2026) are IC50 values, retold here.

Molecules are shown by their SMILES.

One experiment has as its system Tunicamycin induced ISR (ATF4) in wild-type HEK293 cells. In words: HEK-ATF4 High Content Imaging assay (ATF4 signal ratio between nucleus and cytoplasm). The following applies: Homo sapiens, HEK293, 6 h, prevention of Tunicamycin induced ISR, 6 hrs incubation, read-out: Activity (IC50, HEK-ATF4 readout). The experiment is classed as cell-based. The procedure: II Biological Assay HEK-ATF4 High Content Imaging Assay
Example compounds were tested in the HEK-ATF4 High Content Imaging assay to assess their pharmacological potency to prevent Tunicamycin induced ISR. Wild-type HEK293 cells were plated in 384-well imaging assay plates at a density of 12,000 cells per well in growth medium (containing DMEM/F12, 10% FBS, 2 mM L-Glutamine, 100 U/mL Penicillin-100 μg/mL Streptomycin) and incubated at 37° C., 5% CO2. 24-hrs later, the medium was changed to 50 μl assay medium per well (DMEM/F12, 0.3% FBS, 2 mM L-Glutamine, 100 U/mL Penicillin-100 μg/mL Streptomycin). Example compounds were serially diluted in dimethyl sulfoxide (DMSO), spotted into intermediate plates and prediluted with assay medium containing 3.3 μM Tunicamycin to give an 11-fold excess of final assay concentration. In addition to the example compound testing area, the plates also contained multiples of control wells for assay normalization purposes, wells containing Tunicamycin but no example compounds (High control), as well as wells containing neither example compound nor Tunicamycin (Low control). The assay was started by transferring 5 μl from the intermediate plate into the assay plates, followed by incubation for 6 hrs at 37° C., 5% CO2. Subsequently, cells were fixed (4% PFA in PBS, 20 min at room temperature) and submitted to indirect ATF4 immunofluorescence staining (primary antibody rabbit anti ATF4, clone D4B8, Cell Signaling Technologies; secondary antibody Alexa Fluor 488 goat anti-rabbit IgG (H+L), Thermofisher Scientific). Nuclei were stained using Hoechst dye (Thermofisher Scientific), and plates were imaged on an Opera Phenix High Content imaging platform equipped with 405 nm and 488 nm excitation. Finally, images were analyzed using script based algorithms. The main readout HEK-ATF4 monitored the ATF4 signal ratio between nucleus and cytoplasm. Tunicamycin induced an increase in the overall ATF4 ratio signal, which was prevented by ISR modulating example compounds. In addition, HEK-CellCount readout was derived from counting the number of stained nuclei corresponding to healthy cells. This readout served as an internal toxicity control.
The IC50 is the concentration that inhibits the measured activity by half. For the compound `O=C(COc1ccc(Cl)c(F)c1)N[C@H]1CCN(c2nnc(-c3ccc(Cl)cc3)o2)C[C@@H]1O` (stereo in doubt) [Example 12, 2-(4-Chloro-3-fluorophenoxy)-N-[(3S,4S)-1-[5-(4-chlorophenyl)-1,3,4-oxadiazol-2-yl]-3-hydroxypiperidin-4-yl]acetamide], the IC50 lay within 1 to 500 nM.

With `O=C(COc1ccc(Cl)c(F)c1)NC1CCN(c2nnc(-c3ccc(Cl)cn3)o2)CC1` [Example 1, 2-(4-chloro-3-fluorophenoxy)-N-{1-[5-(5-chloropyridin-2-yl)-1,3,4-oxadiazol-2-yl]piperidin-4-yl}acetamide], the IC50 lay in the range of 1 to 500 nM.

`O=C(COc1cnc(Cl)c(F)c1)NC1CCN(c2nnc(-c3ccc(Cl)cc3)o2)CC1` [Example 2, 2-[(6-chloro-5-fluoropyridin-3-yl)oxy]-N-{1-[5-(4-chlorophenyl)-1,3,4-oxadiazol-2-yl]piperidin-4-yl}acetamide]: the IC50 fell in the range of 1 to 500 nM.

Turning to `O=C(COc1ccc(Cl)c(F)c1)NC1CCN(c2nnc(-c3ccc(Cl)cc3)o2)CC1` [Example 4, 2-(4-chloro-3-fluoro-phenoxy)-N-[1-[5-(4-chlorophenyl)-1,3,4-oxadiazol-2-yl]-4-piperidyl]acetamide], the IC50 is 1 to 500 nM.

Take `O=C(COc1ccc(Cl)c(F)c1)NC1CCN(c2nnc(CCCC(F)(F)F)o2)CC1` [Example 5, 2-(4-Chloro-3-fluorophenoxy)-N-{1-[5-(4,4,4-trifluorobutyl)-1,3,4-oxadiazol-2-yl]piperidin-4-yl}acetamide]: the IC50 lay within 500 to 2000 nM.

Take `O=C(COc1ccc(Cl)c(F)c1)NC1CCCN(c2nnc(-c3ccc(Cl)cc3)o2)CC1` (centres unmarked) [Example 6, 2-(4-chloro-3-fluorophenoxy)-N-{1-[5-(4-chlorophenyl)-1,3,4-oxadiazol-2-yl]azepan-4-yl}acetamide]: the IC50 lay in the range of 500 to 2000 nM.

For the compound `O=C(COc1ccc(Cl)c(F)c1)N[C@H]1[C@@H]2CN(c3nnc(-c4ccc(Cl)cc4)o3)C[C@@H]21` [Example 7, 2-(4-Chloro-3-fluorophenoxy)-N-[(1R,5S,6R)-3-[5-(4-chlorophenyl)-1,3,4-oxadiazol-2-yl]-3-azabicyclo[3.1.0]hexan-6-yl]acetamide], the IC50 is 500 to 2000 nM.

Take `O=C(COc1ccc(Cl)c(F)c1)NN1CCN(c2nnc(-c3ccc(Cl)cc3)o2)CC1` [Example 8, 2-(4-Chloro-3-fluorophenoxy)-N-{4-[5-(4-chlorophenyl)-1,3,4-oxadiazol-2-yl]piperazin-1-yl}acetamide]: the IC50 was 1 to 500 nM.

Turning to `O=C(COc1ccc(Cl)c(F)c1)NC1CCN(c2nnc(OCCOC(F)(F)F)o2)CC1` [Example 9, 2-(4-chloro-3-fluorophenoxy)-N-(1-{5-[2-(trifluoromethoxy)ethoxy]-1,3,4-oxadiazol-2-yl}piperidin-4-yl)acetamide], the IC50 is 1 to 500 nM.

As for `O=C(COc1ccc(Cl)c(F)c1)NC1CCN(c2nnc(N3CC(OC(F)(F)F)C3)o2)CC1` [Example 10, 2-(4-chloro-3-fluorophenoxy)-N-(1-{5-[3-(trifluoromethoxy)azetidin-1-yl]-1,3,4-oxadiazol-2-yl}piperidin-4-yl)acetamide], the IC50 is 1 to 500 nM.

As for `O=C(COc1ccc(Cl)c(F)c1)N[C@H]1CCCN(c2nnc(-c3ccc(Cl)cc3)o2)CC1` [Example 13, 2-(4-Chloro-3-fluorophenoxy)-N-[(4S)-1-[5-(4-chlorophenyl)-1,3,4-oxadiazol-2-yl]azepan-4-yl]acetamide], the IC50 lay within 500 to 2000 nM.

For `O=C(COc1ccc(Cl)c(F)c1)N[C@@H]1CCCN(c2nnc(-c3ccc(Cl)cc3)o2)CC1` [Example 14, 2-(4-chloro-3-fluorophenoxy)-N-[(4R)-1-[5-(4-chlorophenyl)-1,3,4-oxadiazol-2-yl]azepan-4-yl]acetamide], the IC50 lay within 2000 to 15000 nM.

Staying with this experiment, now noted: prevention of Tunicamycin induced ISR, 6 hrs incubation, read-out: Activity (IC50, HEK-ATF4 readout).
With `O=C(COc1ccc(Cl)c(F)c1)N[C@@H]1CCN(c2nnc(-c3ccc(Cl)cc3)o2)C[C@H]1O` (stereo in doubt) [Example 3, 2-(4-chloro-3-fluorophenoxy)-N-[(3R*,4R*)-1-[5-(4-chlorophenyl)-1,3,4-oxadiazol-2-yl]-3-hydroxypiperidin-4-yl]acetamide], the IC50 fell in the range of 1 to 500 nM.

For `O=C(COc1ccc(Cl)c(F)c1)N[C@@H]1CCN(c2nnc(-c3ccc(Cl)cc3)o2)C[C@H]1O` (stereo in doubt) [Example 11, 2-(4-Chloro-3-fluorophenoxy)-N-[(3R,4R)-1-[5-(4-chlorophenyl)-1,3,4-oxadiazol-2-yl]-3-hydroxypiperidin-4-yl]acetamide], the IC50 was 500 to 2000 nM.
